Values of other authors in patent US20220265566A1, “ATOVAQUONE NANOPARTICULATE COMPOSITIONS” (Tulex Pharmaceuticals Inc., priority 2018, published 2022).

Solubility in water: practically insoluble in water
Compound: O=C1C(O)=C([C@H]2CC[C@H](c3ccc(Cl)cc3)CC2)C(=O)c2ccccc21 [ATQ, trans-2-[4-(4-chlorophenyl)cyclohexyl]-3-hydroxy-1,4-naphthalenedione]
